Values of other authors, collected in patent publication US20240216329A1, “PUTRESCINE TOPICAL FORMULATIONS” (VIVIER CANADA INC., priority 2017, published 2024).

What was measured:
[1] = test system: scar fibroblasts; details: human harvested scars
[2] = test system: collagen cross-linking (fibroblast tissue transglutaminase); details: in vitro and in vivo
[3] = test system: epidermis of eroded skin

collagen cross-linking [2]: reduce collagen cross-linking
Compound: NCCCCN [putrescine, 1,4-diaminobutane]
apoptosis of scar fibroblasts [1]: increase in apoptosis of scar fibroblasts | barrier function of the epidermis ([3]; eroded skin, topical): increasing its barrier function | thickness of the stratum lucidum / inner strata of epidermis ([3]; stratum lucidum in animals, inner strata of human epidermis): increasing
